Laboratory results reported in publication PMC4414788 (Chemico-biological interactions, 2015).

Tests used:
ALDH2 = biological target: T1, ALDH2 (Homo sapiens, UniProt P05091); experiment: propionaldehyde dehydrogenase assay; type: biochemical; conditions: read-out: ALDH2
T1 sequence (P05091 18-517): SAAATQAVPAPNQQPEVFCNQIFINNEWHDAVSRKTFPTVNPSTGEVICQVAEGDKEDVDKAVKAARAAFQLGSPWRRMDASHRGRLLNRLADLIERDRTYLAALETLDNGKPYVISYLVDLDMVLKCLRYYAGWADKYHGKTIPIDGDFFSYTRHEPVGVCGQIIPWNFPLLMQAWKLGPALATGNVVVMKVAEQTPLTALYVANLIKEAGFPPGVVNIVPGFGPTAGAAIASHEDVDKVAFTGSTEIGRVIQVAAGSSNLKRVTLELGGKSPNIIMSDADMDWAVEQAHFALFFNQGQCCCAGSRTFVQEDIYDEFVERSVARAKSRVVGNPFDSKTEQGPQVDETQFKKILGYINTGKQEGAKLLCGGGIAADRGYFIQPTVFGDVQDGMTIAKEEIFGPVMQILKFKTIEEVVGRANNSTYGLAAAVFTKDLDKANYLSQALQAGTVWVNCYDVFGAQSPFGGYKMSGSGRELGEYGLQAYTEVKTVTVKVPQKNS

ALDH1A1 [1] = biological target: T2, ALDH1A1 (Homo sapiens, UniProt P00352, N121S); experiment: propionaldehyde dehydrogenase assay; type: biochemical; conditions: read-out: ALDH1A1 ^*
T2 sequence (P00352 2-501 N121S): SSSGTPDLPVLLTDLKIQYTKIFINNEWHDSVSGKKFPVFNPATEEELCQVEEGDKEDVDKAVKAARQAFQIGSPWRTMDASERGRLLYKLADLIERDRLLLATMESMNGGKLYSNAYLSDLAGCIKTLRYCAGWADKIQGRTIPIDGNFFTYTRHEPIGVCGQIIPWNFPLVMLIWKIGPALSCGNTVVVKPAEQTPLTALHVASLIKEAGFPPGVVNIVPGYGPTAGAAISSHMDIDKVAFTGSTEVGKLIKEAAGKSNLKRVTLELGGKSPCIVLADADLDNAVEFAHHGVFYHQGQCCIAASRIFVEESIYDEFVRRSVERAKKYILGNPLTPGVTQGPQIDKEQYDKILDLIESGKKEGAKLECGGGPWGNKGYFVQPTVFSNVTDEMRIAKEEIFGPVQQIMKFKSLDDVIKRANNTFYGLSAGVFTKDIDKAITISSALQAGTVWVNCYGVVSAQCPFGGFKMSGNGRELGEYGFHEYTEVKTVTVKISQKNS

ALDH3A1 = biological target: T3, ALDH3A1 (Homo sapiens, UniProt P30838); experiment: biochemical; conditions: read-out: % of control remaining
T3 sequence (P30838 1-453): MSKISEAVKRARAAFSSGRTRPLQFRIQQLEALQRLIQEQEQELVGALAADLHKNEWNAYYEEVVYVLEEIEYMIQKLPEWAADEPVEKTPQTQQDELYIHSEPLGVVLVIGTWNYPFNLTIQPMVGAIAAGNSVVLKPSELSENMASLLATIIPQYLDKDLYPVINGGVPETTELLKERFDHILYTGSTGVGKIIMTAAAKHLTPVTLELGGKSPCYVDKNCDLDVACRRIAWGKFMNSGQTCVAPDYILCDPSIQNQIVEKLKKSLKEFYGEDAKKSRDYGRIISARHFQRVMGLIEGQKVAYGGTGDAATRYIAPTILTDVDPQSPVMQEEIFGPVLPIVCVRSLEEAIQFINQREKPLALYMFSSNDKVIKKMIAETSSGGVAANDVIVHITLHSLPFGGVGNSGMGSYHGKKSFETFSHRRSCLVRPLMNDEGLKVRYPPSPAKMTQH

ALDH1B1 = biological target: T4, ALDH1B1 (Homo sapiens, UniProt P30837); experiment: propionaldehyde dehydrogenase assay; type: biochemical; conditions: read-out: % inhibition at 10 μM
T4 sequence (P30837 18-517): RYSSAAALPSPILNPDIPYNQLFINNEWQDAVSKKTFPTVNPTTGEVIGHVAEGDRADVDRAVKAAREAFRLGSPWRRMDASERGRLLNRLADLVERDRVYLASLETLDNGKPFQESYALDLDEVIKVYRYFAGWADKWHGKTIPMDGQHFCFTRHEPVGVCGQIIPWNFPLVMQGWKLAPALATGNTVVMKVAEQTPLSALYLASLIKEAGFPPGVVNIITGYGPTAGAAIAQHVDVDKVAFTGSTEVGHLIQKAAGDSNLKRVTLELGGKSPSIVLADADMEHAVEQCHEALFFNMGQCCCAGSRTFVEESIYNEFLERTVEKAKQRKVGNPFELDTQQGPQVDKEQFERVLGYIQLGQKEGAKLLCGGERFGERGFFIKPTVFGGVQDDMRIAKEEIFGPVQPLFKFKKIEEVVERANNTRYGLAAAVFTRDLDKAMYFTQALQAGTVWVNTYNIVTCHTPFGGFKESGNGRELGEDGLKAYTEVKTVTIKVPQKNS

ALDH1A3 = biological target: T5, ALDH1A3 (Homo sapiens, UniProt P47895); experiment: propionaldehyde dehydrogenase assay; type: biochemical; conditions: read-out: % inhibition at 10 μM
T5 sequence (P47895 2-512): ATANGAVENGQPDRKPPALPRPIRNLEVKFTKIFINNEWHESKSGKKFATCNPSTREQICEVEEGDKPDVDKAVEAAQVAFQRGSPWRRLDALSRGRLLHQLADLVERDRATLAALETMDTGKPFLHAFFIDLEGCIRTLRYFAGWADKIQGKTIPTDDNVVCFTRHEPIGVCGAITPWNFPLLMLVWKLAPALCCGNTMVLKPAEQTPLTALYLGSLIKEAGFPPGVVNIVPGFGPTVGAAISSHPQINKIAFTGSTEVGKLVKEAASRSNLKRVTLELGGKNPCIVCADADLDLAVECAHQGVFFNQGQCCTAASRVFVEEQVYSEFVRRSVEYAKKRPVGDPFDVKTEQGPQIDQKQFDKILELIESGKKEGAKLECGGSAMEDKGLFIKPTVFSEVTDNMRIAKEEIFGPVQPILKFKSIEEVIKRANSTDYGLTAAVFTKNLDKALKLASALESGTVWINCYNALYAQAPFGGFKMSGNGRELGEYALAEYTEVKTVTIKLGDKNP

ALDH1A2 = biological target: T6, ALDH1A2 (Homo sapiens, UniProt O94788); experiment: propionaldehyde dehydrogenase assay; type: biochemical; conditions: read-out: % inhibition at 10 μM
T6 sequence (O94788 1-518): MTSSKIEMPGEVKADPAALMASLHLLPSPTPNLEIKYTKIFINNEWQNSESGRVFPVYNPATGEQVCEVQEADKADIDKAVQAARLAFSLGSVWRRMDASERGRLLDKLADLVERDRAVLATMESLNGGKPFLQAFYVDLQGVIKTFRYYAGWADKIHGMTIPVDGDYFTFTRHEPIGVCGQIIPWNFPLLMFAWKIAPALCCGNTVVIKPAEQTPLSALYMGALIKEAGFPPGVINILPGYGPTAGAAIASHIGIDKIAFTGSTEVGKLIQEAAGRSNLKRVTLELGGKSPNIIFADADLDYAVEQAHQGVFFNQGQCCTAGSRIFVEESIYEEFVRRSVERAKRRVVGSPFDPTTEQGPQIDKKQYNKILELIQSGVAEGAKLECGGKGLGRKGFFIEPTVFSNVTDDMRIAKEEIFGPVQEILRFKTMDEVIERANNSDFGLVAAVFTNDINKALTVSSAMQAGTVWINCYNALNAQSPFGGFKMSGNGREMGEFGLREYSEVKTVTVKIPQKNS

ALDH1A1 [2] = biological target: T2, ALDH1A1; experiment: biochemical; conditions: read-out: % of control remaining

| activity at 10 µM (ALDH2) [%] | remaining activity at 10 µM (ALDH3A1) [%] | remaining activity at 10 µM (ALDH1A1 [2]) [%] | SMILES | activity at 10 µM (ALDH1A1 [1]) [%] | inhibition at 10 µM (ALDH1B1) [%] | inhibition at 10 µM (ALDH1A3) [%] | inhibition at 10 µM (ALDH1A2) [%] |
| --- | --- | --- | --- | --- | --- | --- | --- |
| 10.3 | – | – | COC(=O)C(C)Oc1ccc2c(C)cc(=O)oc2c1 (centres unmarked) [2BS4, methyl-2-[(4-methyl-2-oxo-2H-chromen-7-yl)oxy]propanoate] | – | – | – | – |
| 7.6 | 87.6 | – | CCCc1c(C)c2cc3c(C)coc3cc2oc1=O [2CB5, 3,5-dimethyl-6-propylfuro[3,2-g]chromen-7-one] | 58.6 | – | – | – |
| – | 87.8 | 89.3 | Cc1oc2cc3oc(=O)c(C)c(C)c3cc2c1C [2P4, 2,3,5,6-tetramethylfuro[3,2-g]chromen-7-one] | – | – | – | – |

| SMILES | activity at 10 µM (ALDH2) [%] | remaining activity at 10 µM (ALDH3A1) [%] | remaining activity at 10 µM (ALDH1A1 [2]) [%] | activity at 10 µM (ALDH1A1 [1]) [%] | inhibition at 10 µM (ALDH1B1) [%] | inhibition at 10 µM (ALDH1A3) [%] | inhibition at 10 µM (ALDH1A2) [%] |
| --- | --- | --- | --- | --- | --- | --- | --- |
| CCCc1c(C)c2cc3c(C)c(C)oc3cc2oc1=O [2P3, 2,3,5-trimethyl-6-propyl-7H-furo[3,2-g]chromen-7-one] | 1.5 | – | – | 40.8 | > 60 | > 60 | > 60 |
